# Reference: patent US10308631B2, “Selective anti-cancer compounds” (NATIONAL UNIVERSITY OF SINGAPORE, priority 2015, dated 2019)
# Key:
# HeLa cells (LC3 puncta) = test: Immunofluorescence analysis of LC3 puncta; type: cell-based, human; details: 2.5 μM, 6 h
# Experimental: HeLa cells, treated with either Compound 1 (a131) at 2.5 μM or DMSO for 6 h, were fixed in ice-cold methanol and subjected to immunofluorescence analysis using antibodies against LC3 and counterstained with diamidino-2-phenylindole (DAPI) to visualize the nucleus. The Merge boxes show both LC3 and DAPI staining. The bars represent 5 μm in length.
# To confirm the results of the immunoblot analysis and the lysosome-mediated autophagy activity, HeLa cervical cancer cells as cultured above were treated with Compound 1 (2.5 μM, DMSO) or DMSO as a control for 6 h. The treated cells were fixed in ice-cold methanol and subjected to immunofluorescence analysis using antibodies against LC3 and counterstained with diamidino-2-phenylindole (DAPI) to visualize the nucleus.
# [1] = system: non-transformed BJ cells depleted of p53 by shRNA-mediated knockdown; test: BrdU incorporation and FACS analysis (cell cycle arrest), p53 knockdown; type: cell-based, human; details: 2.5 and 5 μM, 24 h
# Experimental: A: is output from a FACS analysis of isogenic-non-transformed, without (panels a-c) (WT) or with (panels d-f) shRNA-mediated knockdown of p53 (p53KD), and oncogene-transformed BJ cells (panels g-i), each treated with 0, 5 or 2.5 μM Compound 1 (a131) for 24 h. Cells were doubly stained with PI (horizontal axis) and BrdU (vertical axis). The BrdU-positive population in panels a-c are indicated as arrows. B: is a diagrammatic representation of an immunoblot analysis showing isogenic non-transformed (normal) and oncogene-transformed BJ cells (transformed) treated with Compound 1 (a131) at 0, 2.5 or 5 μM for 24 h or 48 h. Cells were harvested and total lysates were analysed by detecting p53 and p21. Antibodies raised against β-actin were used as an internal loading control. C and D are histograms showing the percentage of bromodeoxyuracil (BrdU)-positive non-transformed (normal) BJ cells. C: Cells were treated with Group 1 Compound 1 (a131) at 2.5 and 5 μM, Compound 23 (b36) at 2.5 and 5 μM, and Compound 21 (b35) at 5 μM, and Group 2 Compound 25 (a166) at 2.5 and 5 μM, for 24 h. Cells were doubly stained with propidium iodide (PI) and BrdU, and subjected to FACS analysis. The BrdU-positive population are plotted as bars. […]
# [2] = system: HeLa cells (mitotic spindles, β-tubulin/DAPI); test: Immunofluorescence analysis of mitotic spindles and chromosomes; type: cell-based, human; details: 6 h, Compound 1 2.5 μM, CQ 15 or 25 μM
# Experimental: HeLa cells, treated with Compound 1 (a131) at 2.5 μM (FIG. 3b), chloroquine (CQ) at 15 μM (FIG. 3c) or 25 μM (FIG. 3d), or DMSO (FIG. 3a) for 6 h, were fixed in methanol and subjected to immunofluorescence analysis using antibodies against β-tubulin to visualize proper formation of mitotic spindles. The condensed mitotic chromosomes were visualized by counterstaining with DAPI. Only Compound 1 (a131)-treated HeLa cells arrested in mitosis with misaligned chromosomes and disorganized spindles (FIG. 3b). The bars in FIGS. 3a-d represent 5 μm in length.
# To confirm the inhibitory mitotic progression ability, HeLa cervical cancer cells as cultured above were treated with Compound 1 (2.5 μM, DMSO), CQ (15 or 25 μM, DMSO) or DMSO for 6 h. The treated cells were fixed in methanol and subjected to immunofluorescence analysis using antibodies against β-tubulin (Abcam, Cat#ab52623) to visualize proper formation of mitotic spindles. The condensed mitotic chromosomes were visualized by counterstaining with DAPI.
# HCT-15 tumour sections = test: Immunofluorescence analysis of xenograft tumour sections; type: in vivo, mice; details: 80 mg/kg, 12 days, vs control vehicle
# Experimental: A, B: is a graphical representation of tumour volumes estimated periodically as indicated. Mice bearing established tumour xenografts using HCT15 or MDA-MB-231 cells were treated orally (PO) or intraperitoneally (IP) twice a day with the indicated doses of Compound 1 or Compound 16 for 12 or 15 days. Paclitaxel (PTX) was given intravenously at dose of 40 mg/kg, 3 times every 4 days. Error bars show ±S.D. from mean tumour volumes obtained from 6 mice. Student's t-test was performed to determine the statistical significance (*=p<0.005). C: is a bar graph showing quantification of cells (n>100 per condition) with misaligned chromosomes and multipolar mitotic-spindles. […] tumour sections treated with Compound 16 (80 mg/kg) or control vehicle for 12 days were stained with anti-β-tubulin antibodies and DAPI. The percentage of cells with misaligned chromosomes and multipolar mitotic-spindles was quantified and plotted with mean values±S.D.
# To confirm the antimitotic efficacy of Compound 16 (b5) in vivo, immunofluorescence analysis of HCT-15 tumor sections treated with Compound 16 (80 mg/kg) or control vehicle for 12 days were stained with anti-β-tubulin antibodies and DAPI.
SMILES,LC3 puncta formation (HeLa cells (LC3 puncta)),cell cycle arrest in p53-depleted cells [1],"mitotic arrest, chromosome alignment and mitotic spindles [2]",cancer cells with misaligned chromosomes and multipolar mitotic-spindles (HCT-15 tumour sections)
"N#C/C(=C\c1cccc2cnccc12)c1c[nH]c2ccccc12 [Compound 1, (Z)-2-(1H-indol-3-yl)-3-(isoquinolin-5-yl)acrylonitrile]",increased LC3 puncta formation,ability of Compound 1 to induce cell cycle arrest was compromised,arrested in mitosis with massively misaligned chromosomes and disorganized mitotic spindles,–
"CN1CCN(CC(=O)n2cc(/C(C#N)=C/c3cccc4cnccc34)c3ccccc32)CC1 [Compound 16, (Z)-3-(isoquinolin-5-yl)-2-(1-(2-(4-methylpiperazin-1-yl)acetyl)-1H-indol-3-yl)acrylonitrile]",–,–,–,significantly increased the number of cancer cells harbouring massively misaligned chromosomes with multipolar mitotic-spindles
